Experimental data published in US8552013B2, “Heterocyclic compounds based on N6-substituted adenine, methods of their preparation, their use for preparation of drugs, cosmetic preparations and growth regulators, pharmaceutical preparations, cosmetic preparations and growth regulators containing these compounds” (USTAV Experimentalni Botaniky Akademie Ved Ceske Republiky, priority 2001, dated 2013).

Assays:
HOS = assay: Calcein AM cytotoxicity, HOS; format: cell-based; conditions: Homo sapiens, HOS, 72 h
[1] = tested on: Triticum aestivum cv. Hereward leaf tips; assay: Retention of chlorophyll in excised wheat leaf tips; format: in vivo; conditions: chlorophyll retention at the concentration with highest activity
Procedure, shortened: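 Tips of first leaves from 7-day wheat (cv. Hereward) seedlings kept on compound solutions (10^−8 to 10^−4 M, from DMSO stock) for 96 h in the dark at 25 °C. Chlorophyll extracted in 80% ethanol at 80 °C and read at 665 nm. Activity at the best concentration expressed relative to 10^−4 M BAP (100%), five replicates.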

[2] = tested on: tobacco callus Nicotiana tabacum L. cv. Wisconsin 38; assay: Cytokinin-dependent tobacco callus growth; format: cell-based; conditions: fresh callus weight at the concentration with highest activity
[3] = tested on: Amaranthus caudatus cotyledon/hypocotyl explants; assay: Amaranthus bioassay, betacyanin content; format: in vivo; conditions: betacyanin content at the concentration with highest activity

SMILES | IC50 (HOS) [µM] | Activity (%) [10^−4 mol · l^−1 BAP = 100%] [1] | Activity (%) [10^−4 mol · l^−1 BAP = 100%] [2] | activity (%) [10^−5 mol · l^−1 BAP = 100%] [3]
Fc1ccccc1CNc1ncnc2nc[nH]c12 [6-(2-fluorobenzylamino)purine] | > 167 | 169 (±20) % | 111 (±21) % | 116 (±3) %
Cc1ccccc1CNc1ncnc2nc[nH]c12 [6-(2-methylbenzylamino)purine] | > 167 | 158 (±29) % | 118 (±3) % | 98 (±22) %
Fc1cccc(CNc2ncnc3nc[nH]c23)c1 [6-(3-fluorobenzylamino)purine] | > 167 | 200 (±25) % | 135 (±8) % | 140 (±5) %
Ic1cccc(CNc2ncnc3nc[nH]c23)c1 [6-(3-iodobenzylamino)purine] | > 167 | 83.5 (±23) % | 76 (±8) % | 79 (±3) %
COc1cccc(CNc2ncnc3nc[nH]c23)c1 [6-(3-methoxybenzylamino)purine] | > 167 | 178 (±16) % | 76 (±20) % | 90 (±16) %
Cc1ccc(CNc2ncnc3nc[nH]c23)cc1 [6-(4-methylbenzylamino)purine] | > 167 | 35 (±23) % | 52 (±8) % | 26 (±10) %
Oc1cccc(CNc2ncnc3nc[nH]c23)c1 [meta-topolin, 6-(3-hydroxybenzylamino)purine] | > 167 | – | – | –
Oc1ccccc1CNc1ncnc2nc[nH]c12 [ortho-topolin, 6-(2-hydroxybenzylamino)purine] | > 167 | – | – | –
